Measurements reported in US6951876B2, “Sulfamoylheteroaryl pyrazole compounds as anti-inflammatory/analgesic agents” (Pfizer, Inc., priority 1999, dated 2005).
Structures can show the parent of a compound that is named as a salt.

SMILES | melting point [°C]
Cc1cc(-c2cc(C(F)(F)F)nn2-c2ccc(S(N)(=O)=O)cn2)ccc1-c1cscn1.Cl | 138 to 140
Cl.NS(=O)(=O)c1ccc(-n2nc(C(F)(F)F)c(Cl)c2-c2ccc(-c3cscn3)cc2)cn1 | 157
CCc1c(-c2ccc(-c3cscn3)cc2)c(C(F)(F)F)nn1-c1ccc(S(N)(=O)=O)nc1.Cl | 141
CCc1c(C(F)(F)F)nn(-c2ccc(S(N)(=O)=O)nc2)c1-c1ccc(-c2cncs2)cc1.Cl | 169
Cl.NS(=O)(=O)c1ccc(-n2nc(C(F)(F)F)c(F)c2-c2ccc(-c3cscn3)cc2)cn1 | 145
NS(=O)(=O)c1ccc(-n2nc(C(F)(F)F)c(Cl)c2-c2ccc(-c3cncs3)c(Cl)c2)cn1 (as salt: methanesulfonate) [Example 16, 5-[4-Chloro-5-[3-chloro-4-(1,3-thiazol-5-yl)phenyl]-3-trifluoromethyl-1H-pyrazol-1-yl]-2-pyridinesulfonamide] | 191 to 193

The remaining lines, values ahead:

melting point [°C] | SMILES
138 | Cl.NS(=O)(=O)c1ccc(-n2nc(C(F)(F)F)cc2-c2ccc(-c3cncs3)cc2)cn1
121 | Cl.NS(=O)(=O)c1ccc(-n2nc(C(F)(F)F)cc2-c2ccc(-c3cscn3)cc2)cn1
140 to 170 | NS(=O)(=O)c1ccc(-n2nc(C(F)(F)F)cc2-c2ccc(-c3ccco3)cc2)cn1 (as salt: hydrochloride) [Example 2, 5-[5-[4-(2-Furyl)phenyl]-3-(trifluoromethyl)-1H-pyrazol-1-yl]-2-pyridinesulfonamide]
156 | NS(=O)(=O)c1ccc(-n2nc(C(F)(F)F)cc2-c2ccc(-c3ncco3)c(Cl)c2)cn1 (as salt: hydrochloride) [Example 3, 5-[5-[3-Chloro-4-(1,3-oxazol-2-yl)phenyl]-3-(trifluoromethyl)-1H-pyrazol-1-yl]-2-pyridinesulfonamide]
114 | NS(=O)(=O)c1ccc(-n2nc(C(F)(F)F)cc2-c2ccc(-c3cscn3)c(C(F)(F)F)c2)cn1 [Example 5, 5-{5-[4-(1,3-Thiazol-4-yl)-3-(trifluoromethyl)phenyl]-3-(trifluoromethyl)-1H-pyrazol-1-yl}-2-pyridinesulfonamide]
